In PubChem BioAssay AID179 (DTP/NCI, 2004):
Calls of active or inactive are those of the source.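 Rule for the calls: active = compounds giving half or more protection of infected cells from virus-caused growth loss, again on retest; inactive = the rest.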

System: CEM cells HIV-1 protection, formazan growth assay
Assay: NCI AIDS Antiviral Assay
Conditions: for IC50: measured here: growth of uninfected CEM cells
Summary of the method: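 Protection of CEM cells against HIV-1 measured as cell growth via soluble formazan read-out, with five concentrations tested on both infected and uninfected cells; failure to protect may reflect toxicity.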

| SMILES | EC50 [µM] | IC50 [µM] | outcome |
| --- | --- | --- | --- |
| O=[N+]([O-])c1ccccc1Oc1ccccc1 | 55 | 87.1 |  |
| CS(=O)(=O)SCCCS(=O)(=O)O | > 912 | > 912 |  |
| COC1C(C)OC(OC2CC(C)(O)Cc3cc4c(c(O)c32)C(=O)c2c(O)cc3c(c2C4=O)OC2OC3(C)C(O)C(N(C)C)C2O)C(OC)C1(C)OC (centres undefined) |  |  | inactive |
| Cc1c(OCc2cccc3ccccc23)ccc2c(=O)cc(SCCN3CCOCC3)oc12 |  |  | inactive |
| COc1cccc(C(C#N)NC23CC4CC(CC(C4)C2)C3)c1 (centres undefined) |  |  | inactive |
| O=C(O)c1ccc(NCc2nc3ccccc3[nH]2)cc1 | > 200 | > 200 |  |
| NC(=S)N/N=C1\C(=O)N(CCc2ccccc2)C(=O)C1C(=O)NCCc1ccccc1 (centres undefined) | > 81.3 | 70.8 |  |
| C/C=N/NC1=Nc2ccc(Cl)cc2C(c2ccccc2)=NN1C | > 200 | 33.9 |  |
| CCOC(=O)Cc1cc(=O)[nH]c(-n2[nH]c(C)c(CCO)c2=O)n1 | > 200 | > 200 |  |
| C1CCN(c2nsc(N3CCCCC3)n2)CC1 |  |  | inactive |
| CC(=O)NCCSSCCCCS(=O)O | > 200 | 3.16 |  |
| COC(=O)C1=COC(OC2OC(CO)C(O)C(O)C2O)C2C1C=C[C@@]21C=C([C@@H](C)OC(=O)/C=C/c2ccc(O)cc2)C(=O)O1 (some centres undefined) | > 295 | 158 |  |
| COc1c(C)cc(Cc2cc(C)c(OC)c(Br)c2)cc1Br | > 200 | 91.2 |  |
| CNc1ncn(-c2c(C)cccc2C)c(=O)n1 | > 200 | > 200 |  |
| S=C(/N=N/c1[nH]c2ccccc2c1NNC(=S)NC12CC3CC(CC(C3)C1)C2)NC12CC3CC(CC(C3)C1)C2 |  |  | inactive |
| CCOP(=O)(OCC)OC1CC(n2cc(C)c(=O)n(C)c2=O)OC1CO[Si](C)(C)C(C)(C)C (centres undefined) | > 200 | 107 |  |
| O=C(CO[N+](=O)[O-])OCC(=O)c1ccccc1 |  |  | inactive |
| O=C1c2ccccc2-c2nc(-c3ccccc3)cc3c2c1nc1ccccc13 | > 200 | 30.2 |  |
| CC(=O)O[C@H]1C#C/C=C\C#CC[C@@H]2C(=O)N[C@@H]12 | > 20 | 1.02 |  |
| COc1ccc(C=NC23CC4CC(CC(C4)C2)C3)cc1 | > 95.5 | > 95.5 |  |
| O=C1CC23CC4CC(CC(C4)C2O1)C3 (centres undefined) | > 200 | > 200 |  |
| COc1cc2c(cc1-c1coc3cc(OCC=C(C)C)ccc3c1=O)OCO2 | > 200 | 7.08 |  |
| O=C1NC2(CCCCC2)C(OCCO)C12CCCCC2 (centres undefined) | > 316 | > 316 |  |

| SMILES | EC50 [µM] | IC50 [µM] | outcome |
| --- | --- | --- | --- |
| CCCCCCCCCCCOCCC1C(C(C)OCCN2CCCC2)OC2OC(C)(C)OC21 (centres undefined) | > 200 | 9.12 |  |
| CCOC(=O)/C(C#N)=C(O)/C(=C/c1ccccc1Cl)NC(=O)c1ccccc1 | > 631 | > 631 |  |
| O=C(O)C(CS)NCc1c2ccccc2[n+]([O-])c2ccccc12 (centres undefined) |  |  | inactive |
| Cc1c(C)c(C)c2c(c1C)CC2=O | > 77.6 | > 77.6 |  |
| CSC1=Nc2ccccc2N=C(c2ccccc2)C1 | > 26.9 | > 26.9 |  |
| O=C1/C(=C/c2cccc([N+](=O)[O-])c2)CCCc2ccccc21 | > 200 | 6.31 |  |
| N#Cc1c(N)oc(-c2ccc([N+](=O)[O-])cc2)c1C#N | > 200 | 67.6 |  |
| C/C(=N\N=C(\[Se])N1CCN(c2ccccn2)CC1)c1ccccn1 | > 36.3 | 0.0155 |  |
| CCc1n[nH]c(=O)n1-n1c(C)ccc1C | > 200 | > 200 |  |
| NC(N)=NCCS(=O)(=O)O | > 200 | > 200 |  |
| CC(=O)Nc1ccc(N)c2cc(S(=O)(=O)O)ccc12 | > 200 | > 200 |  |
| S=c1sc2cscc2s1 | > 52.5 | 30.9 |  |
| O=C(O)CC/C(=N\Nc1nsc2ccccc12)c1ccc(Cl)cc1 | > 10.5 | 6.76 |  |
| Cn1c(=O)c2[nH]c(N=Nc3c(N)n[nH]c3N)nc2n(C)c1=O | > 200 | > 200 |  |
| Nc1nc(C(=O)O)c(N)c(=O)[nH]1 | > 200 | > 200 |  |
| C/C(=N\NC(N)=S)C(CN(CC(C)C)CC(C)C)C(=O)Nc1ccc(C)cc1C (centres undefined) | > 85.1 | > 85.1 |  |
| O=C(O)CCCCCCCCCCCCl | > 200 | 91.2 |  |
| Oc1ccccc1C=Nc1ccc(Oc2ccc(Cl)cc2)c(Cl)c1 | > 200 | 13.2 |  |
| O=c1[nH]c(=O)n(COCc2ccccc2)cc1Nc1ccc(Br)cc1 | > 200 | > 200 |  |
| CC1=Nc2cc(C(=O)c3ccccc3)ccc2N=C(c2c(O)c3c(ccc4ccccc43)oc2=O)C1 | > 20 | > 20 |  |
| CCN(CC)CCSc1c2ccccc2nc2cc(NCC(=O)Nc3ccccc3-c3ccccc3NC(=O)CNc3ccc4c(SCCN(CC)CC)c5ccccc5nc4c3)ccc12 | > 33.1 | > 33.1 |  |
| O=C1C2c3[nH]c4ccccc4c3C3CCCCC3C2C(=O)N1c1ccccc1 (centres undefined) |  |  | inactive |
| CNC(=O)c1n[nH]n(Cc2ccccc2)c1=S | > 200 | > 200 |  |
